The record followed here is ChEMBL document CHEMBL1201862, “PubChem BioAssay data set” (2004).

Test systems include CCRF-CEM; UACC-257; M14; T47D; CAKI-1; IGROV-1; SF-295; NCI-H522; OVCAR-3; RXF 393; SW-620; SNB-75; SF-539; OVCAR-5; 786-0; SNB-19; U-251; MCF7; NCI-H226; SK-OV-3.
What all share (test): NCI tumour cell line growth inhibition, 48 h

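A five-concentration, 48-hour dose response in 96-well plates underlies each endpoint, interpolated linearly between surrounding concentrations. GI50 marks 50% less growth.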 Active and inactive are the calls of the source. Cut-off read from the data, not from the text of the source: active = GI50 up to about 1.1 µM and inactive = higher. A value given as a limit tells only on which side of the number the result lay.

Take `O=C1N/C(=N/N=C\C(O)C(O)C(O)C(O)CO)N/C1=C\c1ccc(Cl)cc1` (stereo not given): the GI50 in the test on CCRF-CEM is 4.89 µM (inactive); with UACC-257 it was 14.5 µM (inactive); in the test with M14, 3.1 µM (inactive); with T47D, 3.25 µM (inactive); in the test on CAKI-1, > 57.7 µM (inactive); with IGROV-1, 12.4 µM (inactive). For the same compound, the GI50 in the test on SF-295 is 9.23 µM (inactive); with NCI-H522, 2.75 µM (inactive); in the test on OVCAR-3, 2.18 µM (inactive); in the test on RXF 393, 7.19 µM (inactive); in the test with SW-620 it was 8.87 µM (inactive); in the test with SNB-75 it was 2.3 µM (inactive). Also, the GI50 is 0.332 µM (active) with SF-539; 19.5 µM (inactive) with OVCAR-5; 5.9 µM (inactive) in the test with 786-0; 2.73 µM (inactive) in the test with SNB-19; 2.15 µM (inactive) with U-251; 4.3 µM (inactive) in the test on MCF7. The GI50 in the test with NCI-H226 was 3 µM (inactive); in the test on SK-OV-3 it was 16.6 µM (inactive).
As for `CC1=C(C(N)=O)C(c2ccncc2)C(C#N)=C2SCC(=O)N12` (stereo not given), the GI50 in the test with CCRF-CEM, in the test with UACC-257, with M14, in the test with T47D, in the test with CAKI-1 and with IGROV-1 was > 100 µM (inactive) throughout. For the same compound, the GI50 in the test on SF-295, in the test with NCI-H522, in the test on OVCAR-3, in the test on RXF 393, with SW-620 and with SNB-75 was > 100 µM (inactive) in each case. Further, the GI50 with SF-539, in the test with OVCAR-5, in the test on 786-0, with SNB-19, in the test on U-251 and in the test with MCF7 was > 100 µM (inactive) in each case. For the same compound, the GI50 with NCI-H226 and in the test with SK-OV-3 was > 100 µM (inactive) throughout.
Turning to `C=CCn1c(N)c(C#N)c(C#N)c1-c1ccccc1`, the GI50 in the test with CCRF-CEM, in the test on UACC-257, with M14, in the test on T47D, in the test on CAKI-1 and in the test with IGROV-1 was > 100 µM (inactive) each time. The GI50 is > 100 µM (inactive) with SF-295; > 100 µM (inactive) in the test on NCI-H522; > 100 µM (inactive) with OVCAR-3; > 100 µM (inactive) in the test with RXF 393; > 100 µM (inactive) with SW-620; 26.2 µM (inactive) in the test with SNB-75. Moreover, the GI50 in the test with SF-539, in the test with OVCAR-5, in the test with 786-0, in the test with SNB-19, with U-251 and in the test on MCF7 was > 100 µM (inactive) throughout. Besides, the GI50 in the test with NCI-H226 and in the test with SK-OV-3 was > 100 µM (inactive) in each case.
On to `Cc1cc(O)c2c(c1)C(=O)C(c1c(C)cc3c(c1O)C(=O)C1OC1C3=O)=CC2=O` (stereo not given), for which the GI50 is 0.0667 µM (active) in the test with CCRF-CEM; 4.74 µM (inactive) with UACC-257; 2.96 µM (inactive) in the test on M14; 1.98 µM (inactive) with T47D; 0.796 µM (active) with CAKI-1; 9.1 µM (inactive) in the test with IGROV-1. In addition, the GI50 was 16.5 µM (inactive) with SF-295; 0.469 µM (active) in the test with NCI-H522; 1.83 µM (inactive) in the test on OVCAR-3; 1.35 µM (inactive) with RXF 393; 1.42 µM (inactive) in the test with SW-620; 12.4 µM (inactive) with SNB-75. Moreover, the GI50 with SF-539 is 4.48 µM (inactive); with OVCAR-5, 5.27 µM (inactive); in the test on 786-0, 1.64 µM (inactive); in the test on SNB-19, 21.5 µM (inactive); with U-251 it was 6.9 µM (inactive); with MCF7, 1.84 µM (inactive). Moreover, the GI50 in the test on NCI-H226 is 16.1 µM (inactive); in the test on SK-OV-3, 17.7 µM (inactive).
For the compound `C=C1C(=O)OC2/C=C(\CO)C3OC3C3OC3(C)CC(OC(=O)/C(=C/C)COC(C)=O)C12` (stereo not given), the GI50 was 2.29 µM (inactive) with CCRF-CEM; 3.84 µM (inactive) in the test with UACC-257; 2.75 µM (inactive) in the test on M14; 3.01 µM (inactive) with T47D; 1.95 µM (inactive) in the test with CAKI-1; 13.2 µM (inactive) in the test with IGROV-1. The GI50 with SF-295 was 10 µM (inactive); in the test with NCI-H522 it was 0.313 µM (active); in the test on OVCAR-3, 3.52 µM (inactive); in the test with RXF 393, 1.71 µM (inactive); in the test with SW-620, 1.35 µM (inactive); in the test on SNB-75 it was 9.68 µM (inactive). Also, the GI50 is 2.91 µM (inactive) in the test on SF-539; 15.3 µM (inactive) with OVCAR-5; 2.29 µM (inactive) with 786-0; 15.1 µM (inactive) with SNB-19; 5 µM (inactive) with U-251; 3.94 µM (inactive) in the test with MCF7. The results for the GI50 in the test on NCI-H226 and in the test on SK-OV-3 were 21.6 µM (inactive) and 18.2 µM (inactive), respectively.
Turning to `C/C=C(\C)c1cc(=O)c2c(C)cc3c(c2o1)C(OC)(OC(C)=O)c1c(O)c(C2CC(C)(N(C)C)C(OC(C)=O)C(C)O2)cc(C2CC(N(C)C)C(OC(C)=O)C(C)O2)c1C3=O` (stereo not given), the GI50 in the test on CCRF-CEM is 0.419 µM (active); in the test on UACC-257, 1.55 µM (inactive); in the test on M14, 1.24 µM (inactive); in the test on T47D, 3.74 µM (inactive); in the test on CAKI-1 it was 0.436 µM (active); in the test with IGROV-1, 1.61 µM (inactive). In addition, the GI50 in the test on SF-295 is 0.942 µM (active); in the test on NCI-H522 it was 0.254 µM (active); in the test with OVCAR-3, 2.28 µM (inactive); in the test on RXF 393, 1.37 µM (inactive); in the test with SW-620, 0.237 µM (active); in the test on SNB-75, 1.69 µM (inactive). Moreover, the GI50 was 1.55 µM (inactive) with SF-539; 2.17 µM (inactive) in the test with OVCAR-5; 0.288 µM (active) in the test on 786-0; 1.78 µM (inactive) in the test on SNB-19; 0.914 µM (active) in the test with U-251; 1.64 µM (inactive) in the test with MCF7. The GI50 was 1.34 µM (inactive) in the test with NCI-H226 and 2.75 µM (inactive) with SK-OV-3.
With `CC1OC(OC2C(O[C@@H]3C[C@@H]4CC[C@@H]5[C@H](CC[C@]6(C)C7C(C[C@@H]56)O[C@]5(CC[C@@H](C)CO5)[C@H]7C)[C@@]4(C)C[C@H]3O)OC(CO)C(O)C2O)C(O)C(O)C1O` (stereo not given in full), the GI50 with CCRF-CEM was 1.93 µM (inactive); with UACC-257 it was 1.86 µM (inactive); in the test on M14, 1.79 µM (inactive); in the test on T47D, 2.14 µM (inactive); in the test with CAKI-1, 2.06 µM (inactive); with IGROV-1, 1.73 µM (inactive). Moreover, the GI50 is 1.83 µM (inactive) in the test with SF-295; 1.89 µM (inactive) in the test on NCI-H522; 1.8 µM (inactive) in the test with OVCAR-3; 2.15 µM (inactive) in the test with RXF 393; 1.93 µM (inactive) in the test with SW-620; 2.24 µM (inactive) in the test on SNB-75. Moreover, the GI50 in the test on SF-539 was 1.64 µM (inactive); in the test on OVCAR-5, 1.57 µM (inactive); with 786-0 it was 1.82 µM (inactive); in the test with SNB-19 it was 2.41 µM (inactive); with U-251, 1.68 µM (inactive); in the test with MCF7, 1.85 µM (inactive). The GI50 with NCI-H226 was 2.84 µM (inactive); with SK-OV-3 it was 1.89 µM (inactive).
